Laboratory results taken from patent US5770573A, “CS-1 peptidomimetics, compositions and methods of using the same” (Cytel Corporation, priority 1995, dated 1998).
Square brackets hold non-standard residues; d marks the D form. Peptide text beside a SMILES is read from it. * marks the point of attachment. Quinoline3carbonyl = O=C(c1cnc2ccccc2c1)*; NHOctadecyl = CCCCCCCCCCCCCCCCCCN*; Cha = N[C@@H](CC1CCCCC1)C(=O)O; X15 = O=S(=O)(c1cccc2cccnc12)*; Phg = N[C@H](C(=O)O)c1ccccc1; Morpholide = C1CN(*)CCO1; Nle = CCCC[C@H](N)C(=O)O; Piperidide = C1CCN(*)CC1; PhAc = O=C(Cc1ccccc1)*; Bz = O=C(c1ccccc1)*; Ahx = NCCCCCC(=O)O; OtBu = CC(C)(C)O*; Sar = CNCC(=O)O; tBu = CC(C)(C)*

target: VLA-4 (Homo sapiens, UniProt P05556+P13612); assay: In vitro binding inhibition of 51Cr-labeled Jurkat cells to solid phase-bound CS-1 compound (SEQ ID NO:1); assay type: cell-based; design: inflammatory cells that contain the VLA-4 receptor [Jurkat cells; host or cells: Jurkat (human T lymphoblastic line); settings: not given
Sequence (P13612 34-1032): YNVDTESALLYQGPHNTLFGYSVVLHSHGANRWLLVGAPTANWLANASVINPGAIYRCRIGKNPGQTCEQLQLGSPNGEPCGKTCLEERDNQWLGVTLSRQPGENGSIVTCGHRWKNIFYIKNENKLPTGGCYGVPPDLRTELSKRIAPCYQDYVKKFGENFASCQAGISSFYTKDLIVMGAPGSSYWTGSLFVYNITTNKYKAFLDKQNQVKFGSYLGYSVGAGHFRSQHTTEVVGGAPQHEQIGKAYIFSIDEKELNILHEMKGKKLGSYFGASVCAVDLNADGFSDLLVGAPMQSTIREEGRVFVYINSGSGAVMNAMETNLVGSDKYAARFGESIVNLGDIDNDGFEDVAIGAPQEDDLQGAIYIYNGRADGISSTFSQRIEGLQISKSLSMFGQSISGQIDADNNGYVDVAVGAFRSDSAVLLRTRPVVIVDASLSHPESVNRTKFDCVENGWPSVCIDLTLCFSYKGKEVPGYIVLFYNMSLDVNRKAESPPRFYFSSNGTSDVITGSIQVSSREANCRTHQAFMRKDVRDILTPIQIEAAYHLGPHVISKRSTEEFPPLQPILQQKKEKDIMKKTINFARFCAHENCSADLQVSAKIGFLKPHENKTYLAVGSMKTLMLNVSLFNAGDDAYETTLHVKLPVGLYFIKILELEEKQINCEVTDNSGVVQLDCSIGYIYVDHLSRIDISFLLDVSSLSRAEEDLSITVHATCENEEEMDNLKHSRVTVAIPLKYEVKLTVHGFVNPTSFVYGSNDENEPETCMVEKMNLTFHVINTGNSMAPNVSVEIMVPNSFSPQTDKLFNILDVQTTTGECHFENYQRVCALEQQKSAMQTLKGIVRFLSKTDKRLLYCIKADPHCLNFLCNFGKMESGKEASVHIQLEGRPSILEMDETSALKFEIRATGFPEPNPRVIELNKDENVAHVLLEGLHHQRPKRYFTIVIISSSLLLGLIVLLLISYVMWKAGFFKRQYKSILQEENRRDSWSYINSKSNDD
Sequence (P05556 21-798): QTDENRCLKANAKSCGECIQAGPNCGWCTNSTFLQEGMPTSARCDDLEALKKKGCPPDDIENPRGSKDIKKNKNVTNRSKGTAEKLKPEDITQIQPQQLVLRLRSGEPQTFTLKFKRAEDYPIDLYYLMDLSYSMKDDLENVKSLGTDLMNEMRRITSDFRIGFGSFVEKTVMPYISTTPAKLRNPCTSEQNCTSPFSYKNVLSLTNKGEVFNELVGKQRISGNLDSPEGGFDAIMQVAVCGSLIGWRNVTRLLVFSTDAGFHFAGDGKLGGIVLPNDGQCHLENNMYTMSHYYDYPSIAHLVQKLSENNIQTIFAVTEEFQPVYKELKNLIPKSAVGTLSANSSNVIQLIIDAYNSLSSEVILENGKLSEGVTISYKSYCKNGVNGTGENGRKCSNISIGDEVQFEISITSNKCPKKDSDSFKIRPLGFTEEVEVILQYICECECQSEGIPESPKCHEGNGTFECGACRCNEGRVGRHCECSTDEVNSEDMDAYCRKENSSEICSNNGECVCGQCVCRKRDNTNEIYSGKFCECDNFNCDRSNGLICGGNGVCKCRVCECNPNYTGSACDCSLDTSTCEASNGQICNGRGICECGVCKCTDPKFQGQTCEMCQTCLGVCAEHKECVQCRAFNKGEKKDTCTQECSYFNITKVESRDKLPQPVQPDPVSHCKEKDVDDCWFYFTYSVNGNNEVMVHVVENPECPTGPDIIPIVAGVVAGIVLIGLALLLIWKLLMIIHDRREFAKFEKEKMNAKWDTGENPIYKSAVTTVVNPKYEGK
Protocol: Binding inhibition is measured here as a concentration of compound that inhibits one-half the binding between a standard number of Jurkat cells and a standard amount of CS-1 compound bound to the surface of a microtiter plate well. Those concentrations are conveniently expressed as IC50 values, smaller numbers indicating a lower concentration required to inhibit 50 percent binding and therefore greater potency. Further specifics of this assay are provided hereinafter.
Jurkat cells (ATCC TIB 152), a human T lymphoblastic line, labeled with ^51 chromium were used to assay in vitro binding inhibition provided by various compounds discussed herein.
The plates were prepared as follows: The 25-mer CS-1 compound (SEQ ID NO:1) dissolved at 0.5-1 μg/ml in a buffer of 0.1M NaHCO3 at pH 9.5 that also contained 10 μg/ml of bovine serum albumin (BSA) or a conjugate of the CS-1 compound linked to […] (CS-1-OVA) dissolved at 1-2.5 μg/ml in the same buffer was used as the substrate. Each well of the microtiter plates was coated with 50 μl of substrate or buffer alone for controls. The wells were permitted to dry out completely and were then rinsed twice with PBS at pH 7.4. Non-specific binding sites of each well were then blocked using 200 μl per well of RPMI/1 percent BSA for two hours at room temperature.
Jurkat cells (3-5×10^6 cells) were placed into a 15 ml Falcon™ round-bottom tube with a cap. The tube was centrifuged, and the extra medium was then removed.
Two hundred microliters of a ^51 Cr labeling solution were added to the centrifuged cells and maintained in contact with the cells for 90-120 minutes in a warm room. […] Longer contact times provide a greater amount of labeling but lower cell viability.
The labeled cells are washed with (i) complete medium, (ii) 1 mM EDTA/PBS and then (iii) RPM1/1 percent BSA free of serum components. The cells are centrifuged after each washing. The cells are finally resuspended in serum-free RPMI/1 percent BSA at a concentration of 1×10^6 viable cells/ml, which provides a concentration that is diluted by one-half in the assay.
Inhibitor compounds are prepared as stock solutions at 20 mg/ml in DMSO in 1.5 ml cryogenic screwcap vials, and were stored at -70° C. Using Flow™ round-bottom or V-bottom microtiter plates, the inhibitor compounds were prepared at twice the assay concentration in RPMI/1 percent BSA at 60 μl/well.
Four initial dilutions were typically used.
The ^51 Cr-labeled cells ([…] at 60 μl/well) were then admixed with the diluted compound solutions. The admixtures were maintained at room temperature (about 22° C.) for 30 minutes.
One hundred microliters of each inhibitor compound/cell admixture were transferred to the substrate-coated wells. This was done in triplicate for each dilution. The resulting plates were incubated for 30 minutes at 37° C. and then washed gently three times with RPMI/1 percent BSA at 200 μl/well. Binding was observed microscopically, particularly after the second wash.
The bound cells were then lysed by the addition of a 0.5 percent solution of sodium dodecylsulfate in water at 100 μl/well. The resulting solutions were then processed for counting and calculation of IC50 values following usual procedures.
The data of Table 1 are normalized to the binding of SEQ ID NO: 3. […] Multiple assays for the same compound were averaged.

Compared with CC(C)C[C@H](NC(=O)C(C)(C)C)C(=O)N[C@@H](CC(=O)O)C(=O)N[C@H](C(=O)N1CCC[C@H]1C(N)=O)C(C)C [926.01], CC(C)C[C@H](NC(=O)C12CC3CC(CC(C3)C1)C2)C(=O)N[C@@H](CC(=O)O)C(=O)N[C@H](C(=O)N1CCC[C@@H]1C(N)=O)C(C)C [896.50] is lower in “Relative Potency” value: 3.29 for the first, 1.38 for the second.

First: CC(C)C[C@H](NS(=O)(=O)c1cccc2cccnc12)C(=O)N[C@@H](CC(=O)O)C(=O)N[C@@H](Cc1ccccc1)C(=O)N1CCC[C@@H]1C(N)=O [951.07] (X15-LDF[dP]-NH2)
Second: CC(C)C[C@H](NC(=O)c1cnc2ccccc2c1)C(=O)N[C@@H](CC(=O)O)C(=O)N[C@@H](Cc1ccccc1)C(=O)N1CCC[C@@H]1C(N)=O [951.05] (Quinoline3carbonyl-LDF[dP]-NH2)
The “Relative Potency” value of the first is lower: 1.57 for the first, 56.3 for the second.

First: CC(C)CN(CCCc1ccccc1)C(=O)N[C@@H](CC(=O)O)C(=O)N[C@@H](Cc1ccccc1)C(=O)N1CCCCC1 [1027.02]
Second: CC(C)C[C@H](NCc1ccccc1)C(=O)N[C@@H](CC(=O)O)C(=O)N[C@@H](Cc1ccccc1)C(=O)N1CCCCC1 [1033.01]
The “Relative Potency” value of the first is lower: 0 for the first, 5.84 for the second.

Compared with CC(C)C[C@H](NC(=O)[C@@H]1CCCN1)C(=O)N[C@@H](CC(=O)O)C(=O)N[C@@H](Cc1ccccc1)C(=O)N1CCC[C@@H]1C(N)=O [951.12] (H-PLDF[dP]-NH2), CC[C@H](C)[C@H](N)C(=O)N[C@@H](CC(C)C)C(=O)N[C@@H](CC(=O)O)C(=O)N[C@@H](Cc1ccccc1)C(=O)N1CCC[C@@H]1C(N)=O [896.26] (H-ILDF[dP]-NH2) is lower in “Relative Potency” value: 61.8 for the first, 5.63 for the second.

Going from CC[C@H](C)[C@H](N)C(=O)N[C@@H](CC1CCCCC1)C(=O)N[C@@H](CC(=O)O)C(=O)N[C@H](C(=O)N1CCC[C@@H]1C(N)=O)C(C)C [896.32] (H-I[Cha]DV[dP]-NH2) to NC(=O)[C@H]1CCCN1C(=O)[C@H](Cc1ccccc1)NC(=O)[C@H](CC(=O)O)NC(=O)CCCCCC1CCCCC1 [1056.07], the “Relative Potency” value falls from 1.41 to 0.

CC(C)C[C@H](N)C(=O)N[C@@H](CC(=O)O)C(=O)N[C@@H](Cc1ccccc1)C(=O)N1CCCCC1 [1047.09] (H-Leu-Asp-Phe-Piperidide) and CC(C)C[C@H](N)C(=O)N[C@@H](CC(=O)O)C(=O)N[C@@H](Cc1ccccc1)C(N)=O [926.31] (H-Leu-Asp-Phe-NH2) are the same in “Relative Potency” value: 0.01 for the first, 0.01 for the second.

Compared with CC(C)C[C@H](NC(=O)c1ccncc1)C(=O)N[C@@H](CC(=O)O)C(=O)N[C@@H](Cc1ccc(O)cc1)C(=O)N1CCCCC1 [1045.01], O=C(O)C[C@H](NC(=O)N(Cc1ccccc1)Cc1ccccc1)C(=O)N[C@@H](Cc1ccccc1)C(=O)N1CCCCC1 [1027.03] is lower in “Relative Potency” value: 23.8 for the first, 0 for the second.

With CC[C@H](C)[C@H](N)C(=O)N[C@@H](CC1CCCCC1)C(=O)N[C@@H](CC(=O)O)C(=O)N[C@H](C(=O)N1CCC[C@H]1C(N)=O)C(C)C [926.08] (H-I[Cha]DVP-NH2) the “Relative Potency” value was “.47”.
In the case of CCCC[C@H](NC(=O)[C@@H](N)[C@@H](C)CC)C(=O)N[C@@H](CC(=O)O)C(=O)N[C@H](C(=O)N1CCC[C@H]1C(N)=O)C(C)C [926.09] (H-I[Nle]DVP-NH2), the “Relative Potency” value was “.41”.
CC(C)C[C@H](NC(=O)[C@H](N)Cc1ccccc1)C(=O)N[C@@H](CC(=O)O)C(=O)N[C@H](C(=O)N1CCC[C@@H]1C(N)=O)C(C)C [926.05] (H-[dF]LDV[dP]-NH2) was tested, and the “Relative Potency” value was “.94”.

same assay, conditions: binding inhibition potency relative to standard compound of SEQ ID NO:3 = 1 (normalized IC50); about one-tenth or less assigned zero

First: CC(C)C[C@H](NC(=O)Cc1ccccc1)C(=O)N[C@@H](CC(=O)O)C(=O)NN(Cc1ccccc1)C(=O)C1CCCC1 [997.15]
Second: CC(C)C[C@H](NC(=O)Cc1ccccc1)C(=O)N[C@@H](CC(=O)O)C(=O)N[C@@H](Cc1ccccc1)C(=O)N1CCC[C@H]1CO [951.17]
The “Relative Potency” value of the first is lower: 1.28 for the first, 163 for the second.

Compared with Cc1ccc(S(=O)(=O)N2CCN(C(=O)[C@H](Cc3ccccc3)NC(=O)[C@H](CC(=O)O)NC(=O)[C@H](CC(C)C)NC(=O)Cc3ccccc3)CC2)cc1 [1111.01], CC(C)C[C@H](NC(=O)Cc1ccccc1)C(=O)N[C@@H](CC(=O)O)C(=O)N[C@@H](Cc1ccccc1)C(=O)N1CCNCC1 [1051.02] is higher in “Relative Potency” value: 363 for the first, 507 for the second.

First: CC(C)C[C@H](NC(=O)Cc1ccccc1)C(=O)NC(C(=O)N[C@@H](Cc1ccccc1)C(=O)N1CCCCC1)C(C(=O)O)C(=O)O (stereo partly drawn) [1026.04]
Second: CC(C)C[C@H](NC(=O)Cc1ccccc1)C(=O)N[C@@H](CC(=O)O)C(=O)N[C@@H](Cc1ccccc1)C(=O)N1CC[N+](C)(C)CC1 [1111.08]
The “Relative Potency” value of the first is lower: 2.32 for the first, 218 for the second.

Going from NC(=O)[C@H]1CCCN1C(=O)[C@H](Cc1ccccc1)NC(=O)[C@H](CC(=O)O)NC(=O)[C@H](CC1CCCCC1)NC(=O)Cc1ccccc1 [1160.01] (PhAc-[Cha]DF[dP]-NH2) to NC(=O)[C@H]1CCCN1C(=O)[C@H](Cc1ccccc1)NC(=O)[C@H](CC(=O)O)NC(=O)[C@H](CC1CCCCC1)NC(=O)c1ccccc1 [896.31] (Bz-[Cha]DF[dP]-NH2), the “Relative Potency” value falls from 213 to 11.

First: CC(C)C[C@H](NC(=O)Cc1ccccc1)C(=O)N[C@@H](CC(=O)O)C(=O)N[C@H](C(=O)N1CCC[C@@H]1C(N)=O)c1ccccc1 [896.69] (PhAc-LD[Phg][dP]-NH2)
Second: CC(C)C[C@H](NC(=O)Cc1ccccc1)C(=O)N[C@@H](CC(=O)O)C(=O)N[C@@H](CO)C(=O)N1CCC[C@@H]1C(N)=O [896.72] (PhAc-LDS[dP]-NH2)
The “Relative Potency” value of the first is higher: 61 for the first, 16.9 for the second.

First: CC(C)C[C@H](NC(=O)Cc1ccccc1)C(=O)N[C@@H](CC(=O)O)C(=O)N[C@@H](Cc1ccccc1)C(=O)N(C)CC(N)=O [1190.04] (PhAc-LDF[Sar]-NH2)
Second: CCCC[C@H](NC(=O)Cc1ccccc1)C(=O)N[C@@H](CC(=O)O)C(=O)N[C@@H](Cc1ccccc1)C(=O)N1CCC[C@@H]1C(N)=O [1160.02] (PhAc-[Nle]DF[dP]-NH2)
The “Relative Potency” value of the first is higher: 196 for the first, 49 for the second.

First: CC(C)C[C@H](NC(=O)Cc1ccccc1)C(=O)N[C@@H](CC(=O)O)C(=O)N[C@@H](Cc1ccc(OC(C)(C)C)cc1)C(=O)OC(C)(C)C [1040.01] (PhAc-Leu-Asp-Tyr(tBu)-OtBu)
Second: CC(C)C[C@H](NC(=O)Cc1ccccc1)C(=O)N[C@@H](CC(=O)O)C(=O)N[C@@H](Cc1ccc(O)cc1)C(=O)N1CCOCC1 [1045.02] (PhAc-Leu-Asp-Tyr-Morpholide)
The “Relative Potency” value of the first is lower: 2.66 for the first, 313 for the second.

Compared with CC(C)C[C@H](NC(=O)Cc1ccccc1)C(=O)N[C@@H](CC(=O)O)C(=O)NC1Cc2ccccc2N(CC(N)=O)C1=O (stereo partly drawn) [997.11], CC(C)C[C@H](NC(=O)Cc1ccccc1)C(=O)N[C@@H](CC(=O)O)C(=O)NC1Cc2ccccc2N(CC(C)C)C1=O (stereo partly drawn) [997.10] is lower in “Relative Potency” value: 44.8 for the first, 6.26 for the second.

First: CC(C)C[C@H](NC(=O)c1ccccc1)C(=O)N[C@@H](CC(=O)O)C(=O)N[C@H](C(=O)N1CCC[C@H]1C(N)=O)C(C)C [896.35]
Second: CC(C)C[C@H](NC(=O)c1ccccc1)C(=O)N[C@@H](CC(=O)O)C(=O)N[C@H](C(=O)N1CCC[C@@H]1C(N)=O)C(C)C [926.02]
The “Relative Potency” value of the first is higher: 16 for the first, 9.6 for the second.

In the case of O=C(O)CC(C(=O)N[C@@H](Cc1ccccc1)C(=O)N1CCCCC1)N1CC[C@H](NC(=O)Cc2ccccc2)C1=O (stereo partly drawn) [1057.01], the “Relative Potency” value was “.88”.

same assay, conditions: relative to SEQ ID NO:3 = 1; potency before the prodrug compound is enzymatically converted to an active form

With CCOC(=O)C[C@H](NC(=O)[C@H](CC(C)C)NC(=O)Cc1ccccc1)C(=O)N[C@@H](Cc1ccccc1)C(=O)N1CCC[C@@H]1C(N)=O [1190.01] (PhAc-LD(OEt)F[dP]-NH2) the “Relative Potency (prodrug compound)” value was 0.

In the case of CCCCCCCCCC(=O)OC1CCN(C(=O)[C@H](Cc2ccccc2)NC(=O)[C@H](CC(=O)O)NC(=O)[C@H](CC(C)C)NC(=O)Cc2ccccc2)CC1 [1068.06], the “Relative Potency (prodrug compound)” value was “.63”.
For CCCCCCCCCCCCCCCCCCNC(=O)CCCCCNC(=O)[C@@H]1CCCN1C(=O)[C@H](Cc1ccccc1)NC(=O)[C@H](CC(=O)O)NC(=O)[C@H](CC(C)C)NC(=O)Cc1ccccc1 [1068.01] (PhAc-LDFP[Ahx]-NHOctadecyl), the “Relative Potency (prodrug compound)” value was “.91”.
